{
  "source": "paper PMC5823845",
  "about": "(Bioorganic & Medicinal Chemistry, 2018)",
  "key": {"[1]": {"assay": "Stability and intrinsic clearance in cryopreserved hepatocytes", "settings": "cynomolgus monkey", "procedure": "(§2) Reactions were terminated by addition of 100 μL of acetonitrile containing carbamazepine as the analytical internal standard. Samples were centrifuged and the supernatant fractions analysed by LC-MS/MS. The instrument responses (peak heights) were referenced to the zero time-point samples (as 100%) in order to determine the percentage of compound remaining. Ln plots of the % remaining, for each compound, were used to determine the half-life for the hepatocyte incubations."}, "[2]": {"target": "T1, mouse RAR alpha receptor (Mus musculus, UniProt P11416)", "T1 sequence (P11416 183-417 limits assumed)": "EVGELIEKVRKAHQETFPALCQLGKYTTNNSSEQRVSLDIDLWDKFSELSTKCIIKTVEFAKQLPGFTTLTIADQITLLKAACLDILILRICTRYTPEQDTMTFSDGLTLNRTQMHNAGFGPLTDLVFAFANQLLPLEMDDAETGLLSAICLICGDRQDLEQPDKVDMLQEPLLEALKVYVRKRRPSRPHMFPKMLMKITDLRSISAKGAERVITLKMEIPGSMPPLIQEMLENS", "settings": "relative to the amplitude of the normalizing ATRA output"}, "[3]": {"tested_on": "HEPG2 cells", "assay": "High-content cell toxicity screen in HEPG2 cells", "assay_type": "cell-based", "settings": "concentrations up to 50 μM", "experimental": "Effect on the cell or mitochondrial viability markers in HepG2 cells were tested for compounds up to 50 μM. HepG2 cells were plated on 96-well tissue culture treated black walled clear bottomed polystyrene plates at 0:3 _ 104 cells in 100_L per well. After 24 hr the cells were dosed with the test compound at a range of concentrations (see Assay Summary for details). At the end of the incubation period, the cells were loaded with the relevant dye/antibody for each cell health marker. The plates were then scanned using an automated fluorescent cellular imager, ArrayScanr VTI (Thermo Scientific Cellomics)."}, "[4]": {"target": "T2, Cyp 450 3A4 (Homo sapiens, UniProt P08684)", "T2 construct": "tissue Cyprotex (CRO); host or cells: human liver microsomes", "T2 sequence (P08684 whole entry, canonical isoform)": "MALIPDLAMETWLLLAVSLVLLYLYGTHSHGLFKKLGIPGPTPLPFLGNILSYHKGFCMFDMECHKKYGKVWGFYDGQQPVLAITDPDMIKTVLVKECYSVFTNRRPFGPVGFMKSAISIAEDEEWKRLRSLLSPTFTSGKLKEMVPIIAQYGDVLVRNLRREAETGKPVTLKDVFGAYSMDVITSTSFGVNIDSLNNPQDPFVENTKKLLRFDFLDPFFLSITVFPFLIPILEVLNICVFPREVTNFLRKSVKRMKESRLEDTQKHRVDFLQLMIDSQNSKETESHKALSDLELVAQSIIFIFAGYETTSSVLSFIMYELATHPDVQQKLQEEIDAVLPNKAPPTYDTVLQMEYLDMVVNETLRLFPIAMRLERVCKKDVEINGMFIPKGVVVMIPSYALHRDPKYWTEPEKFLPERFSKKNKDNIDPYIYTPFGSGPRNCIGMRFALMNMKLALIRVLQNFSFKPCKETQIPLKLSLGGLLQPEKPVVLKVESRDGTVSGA", "assay": "Cytochrome P450 inhibition in human liver microsomes", "assay_type": "in vitro ADME", "settings": "human liver microsomes", "experimental": "(§1) The five main cytochrome P450 isoforms (CYP1A, CYP2C9, CYP2C19, CYP2D6 and CYP3A4) were investigated in the P450 inhibition assay. […] At the end of the incubation, the formation of the metabolite was monitored by LC-MS/MS (or fluorescence in the case of CYP1A) at each of the test compound concentrations."}, "[5]": {"target": "T3, Cyp 450 2C19 (Homo sapiens, UniProt P33261)", "T3 construct": "tissue Cyprotex (CRO); host or cells: human liver microsomes", "T3 sequence (P33261 whole entry)": "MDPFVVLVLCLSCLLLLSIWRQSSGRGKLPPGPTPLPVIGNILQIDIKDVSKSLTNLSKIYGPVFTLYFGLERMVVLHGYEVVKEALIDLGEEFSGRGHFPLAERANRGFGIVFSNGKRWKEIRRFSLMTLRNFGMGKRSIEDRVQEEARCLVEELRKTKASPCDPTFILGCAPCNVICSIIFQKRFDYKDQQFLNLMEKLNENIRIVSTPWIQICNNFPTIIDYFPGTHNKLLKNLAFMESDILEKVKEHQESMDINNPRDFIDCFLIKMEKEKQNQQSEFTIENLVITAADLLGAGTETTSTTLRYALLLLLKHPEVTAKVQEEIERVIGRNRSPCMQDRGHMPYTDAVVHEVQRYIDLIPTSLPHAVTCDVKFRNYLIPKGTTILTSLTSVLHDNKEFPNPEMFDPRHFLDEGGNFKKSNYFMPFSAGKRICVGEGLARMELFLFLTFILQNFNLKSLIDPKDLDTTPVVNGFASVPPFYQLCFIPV", "assay": "Cytochrome P450 inhibition in human liver microsomes", "assay_type": "in vitro ADME", "settings": "human liver microsomes", "experimental": "as §1"}, "[6]": {"target": "T4, Cyp 450 1A2 (Homo sapiens, UniProt P05177)", "T4 construct": "tissue Cyprotex (CRO); host or cells: human liver microsomes", "T4 sequence (P05177 1-516)": "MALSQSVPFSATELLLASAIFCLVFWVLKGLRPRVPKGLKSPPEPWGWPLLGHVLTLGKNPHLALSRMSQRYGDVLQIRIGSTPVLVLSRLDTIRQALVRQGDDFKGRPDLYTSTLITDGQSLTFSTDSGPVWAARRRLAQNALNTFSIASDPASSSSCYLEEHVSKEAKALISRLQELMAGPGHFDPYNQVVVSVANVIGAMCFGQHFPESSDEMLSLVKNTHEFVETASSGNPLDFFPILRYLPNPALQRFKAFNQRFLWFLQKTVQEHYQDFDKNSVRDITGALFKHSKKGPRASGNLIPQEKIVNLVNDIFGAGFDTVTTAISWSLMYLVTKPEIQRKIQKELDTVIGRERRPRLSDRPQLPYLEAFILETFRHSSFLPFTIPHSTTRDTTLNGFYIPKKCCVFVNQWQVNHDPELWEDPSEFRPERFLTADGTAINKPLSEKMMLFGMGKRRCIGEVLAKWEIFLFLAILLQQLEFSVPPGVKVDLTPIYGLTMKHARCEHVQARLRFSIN", "assay": "Cytochrome P450 inhibition in human liver microsomes", "assay_type": "in vitro ADME", "settings": "human liver microsomes", "experimental": "as §1"}, "[7]": {"target": "T5, Cyp 450 2D6 (Homo sapiens, UniProt P10635)", "T5 construct": "tissue Cyprotex (CRO); host or cells: human liver microsomes", "T5 sequence (P10635 whole entry)": "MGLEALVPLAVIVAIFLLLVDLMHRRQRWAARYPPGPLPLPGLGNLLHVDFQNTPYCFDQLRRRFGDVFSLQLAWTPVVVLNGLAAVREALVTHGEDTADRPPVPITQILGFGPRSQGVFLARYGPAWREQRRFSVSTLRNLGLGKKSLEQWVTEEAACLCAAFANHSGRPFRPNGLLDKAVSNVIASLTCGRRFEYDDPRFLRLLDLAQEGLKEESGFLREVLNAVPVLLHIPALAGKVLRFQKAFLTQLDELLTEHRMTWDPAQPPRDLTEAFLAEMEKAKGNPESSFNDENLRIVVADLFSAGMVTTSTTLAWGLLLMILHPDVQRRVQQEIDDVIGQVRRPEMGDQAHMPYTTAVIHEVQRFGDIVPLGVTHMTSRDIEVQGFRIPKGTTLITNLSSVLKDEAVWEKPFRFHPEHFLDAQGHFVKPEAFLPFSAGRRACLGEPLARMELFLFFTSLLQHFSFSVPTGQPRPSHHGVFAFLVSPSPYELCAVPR", "assay": "Cytochrome P450 inhibition in human liver microsomes", "assay_type": "in vitro ADME", "settings": "human liver microsomes", "experimental": "as §1"}, "[8]": {"target": "T6, Cyp 450 2C9 (Homo sapiens, UniProt P11712)", "T6 construct": "tissue Cyprotex (CRO); host or cells: human liver microsomes", "T6 sequence (P11712 whole entry)": "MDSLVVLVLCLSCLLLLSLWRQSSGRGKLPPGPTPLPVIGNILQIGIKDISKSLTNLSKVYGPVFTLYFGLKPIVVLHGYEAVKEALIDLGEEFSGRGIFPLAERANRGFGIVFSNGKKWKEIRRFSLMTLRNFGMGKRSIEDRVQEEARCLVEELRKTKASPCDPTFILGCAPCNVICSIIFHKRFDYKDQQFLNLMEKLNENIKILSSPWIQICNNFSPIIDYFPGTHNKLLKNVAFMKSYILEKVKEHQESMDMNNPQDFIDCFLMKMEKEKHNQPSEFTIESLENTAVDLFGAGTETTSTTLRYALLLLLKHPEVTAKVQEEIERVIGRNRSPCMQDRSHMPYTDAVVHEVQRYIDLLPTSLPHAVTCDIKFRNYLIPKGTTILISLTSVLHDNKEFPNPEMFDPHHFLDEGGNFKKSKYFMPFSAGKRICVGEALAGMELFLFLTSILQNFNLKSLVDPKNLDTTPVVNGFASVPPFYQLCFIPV", "assay": "Cytochrome P450 inhibition in human liver microsomes", "assay_type": "in vitro ADME", "settings": "human liver microsomes", "experimental": "as §1"}, "[9]": {"tested_on": "COS-7 cells", "assay": "Cytotoxicity assay (MTT) in COS-7 cells", "assay_type": "cell-based", "settings": "50-fold multiple of EC50", "experimental": "Cytotoxicity Assay: COS-7 cells were plated out on 96 well plates at a density of 8000 cells per well. […] After two days an MTT assay (Promega) was carried out according to the manufacturer’s instructions"}, "[10]": {"assay": "Plasma protein binding, equilibrium dialysis", "assay_type": "in vitro ADME", "experimental": "Equilibrium dialysis is used to determine the extent of binding of a compound to plasma proteins. A semi-permeable membrane separates a protein-containing compartment from a protein-free compartment. The system is allowed to equilibrate at 37 °C. The test compound present in each compartment is quantified by LC-MS/MS. The extent of binding is reported as a fraction unbound (fu) value which is calculated as detailed below;\nfu = 1 – (PC - PF /PC). PC = Test compound concentration in protein-containing compartment. PF = Test compound concentration in the protein-free compartment."}, "[11]": {"assay": "Stability and intrinsic clearance in cryopreserved hepatocytes", "settings": "human", "procedure": "as §2"}, "[12]": {"settings": "Beagle dogs, n = 3", "procedure": "intravenous (bolus) injection at a dose level of 0.2 mg/kg. […] Intravenous doses were administered by bolus injection into a cephalic vein at a dose volume of 1 mL/kg. Oral doses were administered by gastric intubation at a dose volume of 5 mL/kg. […] Pharmacokinetic parameters were calculated using the computer program Phoenix WinNonlin version 6.3 (Pharsight Corporation, USA)."}, "[13]": {"assay": "PK studies in rats", "assay_type": "in vivo, Sprague-Dawley rats", "experimental": "The Test Items were orally administered at a dose of 10 mg/kg and a dosing volume of 10 mL/kg. […] The Test Items were intravenously administered at a dose of 0.5 mg/kg and a dosing volume of 2 mL/kg. […] Whole blood concentrations of the Test Items were measured using LC-MS/MS and selected pharmacokinetic parameters calculated using Pharsight WinNonLin software. For furthers details see Supplementary data file."}, "[14]": {"tested_on": "Salmonella Typhimurium (TA98, TA100, and TA1535)", "assay": "Bacterial cytotoxicity", "assay_type": "cell-based", "settings": "up to 100 μM; presence and absence of S9", "source_text": "The results for cytotoxicity are expressed as percent of control growth (OD650). A compound with growth less than 60% of control is flagged and considered to be cytotoxic."}, "[15]": {"assay": "Solubility in water", "assay_type": "physicochemical", "settings": "as the sodium salt in water at 35 °C"}, "[16]": {"tested_on": "CHO-K1 cells", "assay": "In vitro micronucleus test", "assay_type": "cell-based", "settings": "presence and absence of S9", "source_text": "Fluorescent imaging was used to obtain the results in the micronucleus test."}},
  "note": "Entries after “also recorded” stand apart in the source; their conditions may differ.",
  "data": [
    {"compound": "CCOc1c(Cl)cc(C(=O)Nc2ccc(C(=O)O)c(C)c2)cc1OC(C)C", "note": "[Compound 56, 4-(3-Chloro-4-ethoxy-5-isopropoxybenzamido)-2-methylbenzoic acid]", "values": [
      {"measurement": "half-life at 1 μM", "setting": "[1]", "value": "> 7.5", "unit": "h"},
      {"measurement": "half-life at 30 μM", "setting": "[1]", "value": "> 7.5", "unit": "h"},
      {"measurement": "hepatocyte CLint at 1 μM", "setting": "[1]", "value": "< 3", "unit": "µL/min/1e6 cells"},
      {"measurement": "hepatocyte CLint at 30 μM", "setting": "[1]", "value": "< 3", "unit": "µL/min/1e6 cells"},
      {"measurement": "RARα agonist type (partial / full agonist)", "setting": "[2]", "value": "full agonist"},
      {"measurement": "effect on cell or mitochondrial viability markers", "setting": "[3]", "value": "no effect"},
      {"measurement": "IC50", "setting": "[4]", "value": "> 25", "unit": "µM"},
      {"measurement": "IC50", "setting": "[5]", "value": "> 25", "unit": "µM"},
      {"measurement": "IC50", "setting": "[6]", "value": "> 25", "unit": "µM"},
      {"measurement": "IC50", "setting": "[7]", "value": "> 25", "unit": "µM"},
      {"measurement": "IC50", "setting": "[8]", "value": "> 25", "unit": "µM"},
      {"measurement": "cytotoxicity in COS-7 cells", "setting": "[9]", "value": "no cytotoxicity; also recorded: not cytotoxic"},
      {"measurement": "fraction unbound", "setting": "[10]; human", "value": 0.07},
      {"measurement": "fraction unbound", "setting": "[10]; mouse", "value": 0.09},
      {"measurement": "half-life at 1 μM", "setting": "[11]", "value": "> 7.5", "unit": "h"},
      {"measurement": "half-life at 30 μM", "setting": "[11]", "value": "> 7.5", "unit": "h"},
      {"measurement": "hepatocyte CLint at 1 μM", "setting": "[11]", "value": "< 3", "unit": "µL/min/1e6 cells"},
      {"measurement": "hepatocyte CLint at 30 μM", "setting": "[11]", "value": "< 3", "unit": "µL/min/1e6 cells"},
      {"measurement": "po F", "setting": "[12]; 0.5 mg/kg iv, 1 mg/kg po", "value": 83, "unit": "%"},
      {"measurement": "iv t1/2", "setting": "[12]; 0.5 mg/kg iv", "value": 9.2, "unit": "h"},
      {"measurement": "po Cmax", "setting": "[12]; 1 mg/kg po", "value": 2050, "unit": "ng/mL"},
      {"measurement": "po Tmax", "setting": "[12]; 1 mg/kg po", "value": 0.5, "unit": "h"},
      {"measurement": "rat pK AUC po", "setting": "[13]; 10 mg/kg po, 8% Ethanol/92% PEG-400, n = 4", "value": "70,765 ng·min mL^−1"},
      {"measurement": "rat pK Cl", "setting": "[13]; iv 0.5 mg/kg, n = 4", "value": 7, "unit": "mL/kg/min"},
      {"measurement": "bioavailability", "setting": "[13]; male, Sprague-Dawley, whole blood, rat, 10 mg/kg po vs 0.5 mg/kg iv, n = 4, read-out: rat pK F%", "value": 40, "unit": "%"},
      {"measurement": "bacterial cytotoxicity tests", "setting": "[14]", "value": "negative"},
      {"measurement": "solubility", "setting": "[15]", "value": "> 5000", "unit": "µg/mL"},
      {"measurement": "in vitro micronucleus test", "setting": "[16]", "value": "negative"}
    ]}
  ]
}
